Results from PubChem BioAssay (NCI).
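Interpolation was linear, between the two tested concentrations surrounding the appropriate level; five concentrations were tested over 48 hours in 96-well plates. TGI is the concentration that stops growth completely.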

What was measured:
Assay in all cases: NCI tumour cell line growth inhibition, 48 h
[1] = tested on: A498 renal
[2] = tested on: A549 NSCLC
[3] = tested on: BT-549 breast
[4] = tested on: CAKI-1 renal
[5] = tested on: DU-145 prostate
[6] = tested on: EKVX NSCLC
[7] = tested on: HCC-2998 colon
[8] = tested on: HCT-116 colon
[9] = tested on: HCT-15 colon
[10] = tested on: HL-60(TB) leukemia
[11] = tested on: HOP-62 NSCLC
[12] = tested on: HOP-92 NSCLC
[13] = tested on: HS 578T breast
[14] = tested on: HT29 colon
[15] = tested on: IGROV1 ovarian
[16] = tested on: K-562 leukemia
[17] = tested on: LOX IMVI melanoma
[18] = tested on: M14 melanoma
[19] = tested on: MCF7 breast
[20] = tested on: MDA-MB-231 breast
[21] = tested on: MDA-MB-435
[22] = tested on: MDA-N
[23] = tested on: MOLT-4 leukemia
[24] = tested on: NCI-H226 lung
[25] = tested on: NCI-H23 lung
[26] = tested on: NCI-H460 lung
[27] = tested on: NCI-H522 lung
[28] = tested on: NCI/ADR-RES ovarian
[29] = tested on: OVCAR-5 ovarian
[30] = tested on: OVCAR-8 ovarian
[31] = tested on: PC-3 prostate
[32] = tested on: RXF 393 renal
[33] = tested on: SF-295 CNS
[34] = tested on: SF-539 CNS
[35] = tested on: SK-MEL-2 melanoma
[36] = tested on: SK-MEL-28 melanoma
[37] = tested on: SK-MEL-5 melanoma
[38] = tested on: SN12C renal
[39] = tested on: SNB-19 CNS
[40] = tested on: SNB-75 CNS
[41] = tested on: SR leukemia
[42] = tested on: SW-620 colon
[43] = tested on: T-47D breast
[44] = tested on: TK-10 renal
[45] = tested on: U251 CNS
[46] = tested on: UACC-257 melanoma
[47] = tested on: UACC-62 melanoma

For O=c1ccc2ccc(CBr)cc2o1, the TGI [1] was 29.5 µM, the TGI [2] was 30.1 µM and the TGI [3] was 8.99 µM. For the same molecule, the TGI [4] was 2.89 µM, the TGI [5] was 30.8 µM and the TGI [6] was 5.94 µM. It also gave a TGI [7] of 9.53 µM, a TGI [8] of 3.74 µM and a TGI [9] of 3.45 µM. It also gave a TGI [10] of 3.58 µM, a TGI [11] of 30.6 µM and a TGI [12] of 3.13 µM. For the same molecule, the TGI [13] was 28.9 µM, the TGI [14] was 6.41 µM and the TGI [15] was 13.1 µM. For the same molecule, the TGI [16] was 5.2 µM, the TGI [17] was 3.01 µM and the TGI [18] was 8.92 µM. The TGI [19] was 3.87 µM, the TGI [20] was 4.14 µM and the TGI [21] was 10.4 µM. The TGI [22] was 15.1 µM, the TGI [23] was 5.98 µM and the TGI [24] was 23 µM. It also gave a TGI [25] of 8.91 µM, a TGI [26] of 25.3 µM and a TGI [27] of 2.55 µM. It also gave a TGI [28] of 3.73 µM, a TGI [29] of 3.29 µM and a TGI [30] of 4.06 µM. It also gave a TGI [31] greater than 100 µM, a TGI [32] of 3.47 µM and a TGI [33] of 28.7 µM. The TGI [34] was 13.9 µM, the TGI [35] was 26.6 µM and the TGI [36] was 26.6 µM. The TGI [37] was 8.96 µM, the TGI [38] was 7.22 µM and the TGI [39] was 24.8 µM. The TGI [40] was greater than 100 µM, the TGI [41] was 5.05 µM and the TGI [42] was 3.2 µM. The TGI [43] was 5.76 µM, the TGI [44] was 3.37 µM and the TGI [45] was 3.36 µM. It also gave a TGI [46] of 24 µM and a TGI [47] of 23.1 µM.
